Assay results from patent US20260355177A1, “TREATMENT FOR APLASTIC ANEMIA (AA)” (ZYDUS LIFESCIENCES LIMITED, priority 2022, published 2026).

Assays:
[1] = test system: cyclophosphamide-induced aplastic anemia in C57 mice; assay: Cyclophosphamide-induced aplastic anemia in C57 mice: white blood cell (WBC) and platelet count; format: in vivo; conditions: after 11 days of treatment; Formula (Ia) 15 mg/kg PO daily; Romiplostim 30 μg/kg SC once a week; mean±SEM, n=6
Protocol: Aplastic anemia (AA) was induced in C57 mice by administration of cyclophosphamide. Cyclophosphamide was dissolved in deionized water at concentrations of 20 mg/mL. Immediately before administration, deionized water was added to the stock solution and the solution was given by intraperitoneal (ip) injection at dose of 100 mg/kg. Mice were dosed with vehicle or cyclophosphamide for 4 days. Control mice were given vehicle at the same dose volume.^10 Compound of formula (Ia) (15 mg/kg, PO, daily) and Romiplostim (30 μg/kg, SC, once a week) combination were administered.
Blood was collected from each group after 11 days of treatment. The changes in the white blood cell (WBC) and platelet count were measured. Data are mean±SEM (n=6 for each group).

[2] = test system: busulphan-induced aplastic anemia in Balb/c mice; assay: Busulphan-induced aplastic anemia in Balb/c mice: white blood cell (WBC) and platelet count; format: in vivo; conditions: after 44 days of treatment; Formula (Ia) 15 mg/kg PO daily; Romiplostim 50 μg/kg SC once a week; mean±SEM, n=6
Protocol: Aplastic anemia (AA) was induced in BALB/c mice by administration of busulphan (BU). BU was dissolved in acetone at concentrations of 5-10 mg/mL. Immediately before administration, deionized water was added to the BU-acetone solution and the solution was given by intraperitoneal (ip) injection at dose of 9 mg/kg. Control mice were given vehicle at the same dose volume.^9 Compound of formula (Ia) (15 mg/kg, PO, daily) and Romiplostim (50 μg/kg, SC, once a week) combination were administered.
Mice were be dosed with vehicle or BU on 10 occasions over a period of 21 days (days 1, 3, 6, 8, 10, 13, 15, 17, 19 and 21). Between 1 to 127 days after the final BU dose, mice from each group were autopsied for blood.^9
The changes in the white blood cell (WBC) and platelet count were measured after 44 days of treatment. Data are mean±SEM (n=6 for each group).

Row | Compound | Platelets [1] | Platelets % Change against vehicle control [1] | WBC [1] | WBC % Change against vehicle control [1] | Platelets [2] | Platelets % Change against vehicle control [2] | WBC [2] | WBC % Change against vehicle control [2]
1 | O=C(O)CNC(=O)c1c(O)c2ccccc2n(OCC2CC2)c1=O [Formula (Ia)] | 742.3 10^3/uL | 32.1% | 7.0 10^3/uL | 10.1% | 676.2 10^3/uL | 30.6% | 2.6 10^3/uL | 10.9%
2 | Romiplostim |  |  |  |  | 1257.0 10^3/uL | 142.7% | 4.2 10^3/uL | 79.3%
